Results as given in PMC12164290, “Immune-modulatory effects of Spindlin-1 inhibitors” (Clinical and Experimental Immunology, 2025).
pIC50: −log10 of the molar value. Read-outs that look alike come from different tables or passages of the source.

Legend:
[1] = system: Spindlin-1-H3K4me3-interaction; set-up: method as in PMID 31260300, PMID 34492335; conditions: cited from earlier work
M2 MdMs [2] = assay: viability assay (Orangu, formazan-based), M2 MdM; type: cell-based, human; conditions: 48 h, n = 3
Description: (§1) 2 × 10^5 CD4^+ T cells, 1 × 10^5 B cells, 1 × 10^5 monocytes, 1 × 10^5 M1 MdMs, or 1 × 10^5 M2 MdMs were treated with A366, MS31, or vehicle for 48 h. The viability was determined with the Orangu^TM assay as described by the manufacturer.

B cells [3] = assay: viability assay (Orangu, formazan-based), B cells; set-up: species or system human; conditions: 48 h, n = 3, read-out: B cell viability IC50
Description: as §1

M1 MdMs [4] = assay: energy metabolism (Seahorse OCR/ECAR), M1 MdMs; type: cell-based, human; conditions: polarized 48 h in presence of compound
Description: (§2) The energy metabolism was determined as described previously. Briefly, for the analysis of the extracellular acidification rate (ECAR) and the oxygen consumption rate (OCR) for human M1 MdMs, M2 MdMs, and activated B-/ CD4^+ T cells, the Seahorse XFe96 FluxPak (Agilent, Waldbronn, Germany) was used as recommended by the supplier. MdMs were polarized to M1 or M2 MdMs, B- and CD4^+ T cells were activated in the presence of A366, MS31, or vehicle (DMSO) for 48 h (M1 MdMs), 24 h (M2 MdMs) or 5 days (T/B cells). Cells were washed with Seahorse XF RPMI medium pH 7.4 (Agilent, Waldbronn, Germany), and OCR and ECAR were measured for a period of 120 min using the Seahorse XFe96 Analyzer (Agilent, Waldbronn, Germany) and analyzed by Wave Software (Agilent, Waldbronn, Germany). For T/B cells, the values after 50 min of stimulation of samples were related to the unstimulated control sample. For macrophages, the values at 50 min in treated samples were related to the vehicle control.

CD4+ T cells [5] = assay: viability assay (Orangu, formazan-based), CD4+ T cells; set-up: species or system human; conditions: 48 h, n = 3, read-out: T cell viability IC50
Description: as §1

M1 macrophages = assay: polarization of MdMs to M1 macrophages (surface markers, cytokines, viability); type: cell-based, human
Description: (§3) The generation of monocyte-derived macrophages (MdMs) was performed as previously described. Briefly, 0.5 × 10^6 CD14^+ cells/well were differentiated to macrophages in the presence of 10 ng/ml M-CSF (for M2 macrophages) or 10 ng/ml GM-CSF (for M1 macrophages) for 7 days. The macrophages were polarized in the presence of different concentrations of A366, MS31, or vehicle (DMSO) in 48-well plates. After pre-incubation with test substances or DMSO for 30 min, stimulants for differentiation were added: 20 ng/ml IFNγ for M1 macrophages and 10 ng/ml IL4 for M2 macrophages and incubated for 48h and 24h, respectively.
(§4) For analysis of the surface markers, 1.5–2*10^5 cells of each sample were blocked with human FcR Blocking Reagent (15 min, 4 °C). Afterwards, samples were stained with up to 7 µl of a mixture of different surface marker antibodies (15 min, 4 °C) and 250 µl of 10 % FCS/PBS were added. After centrifugation (300 g, 5 min, 4 °C) samples were resuspended in 100 µl PBS and measured with MACSQuant® Analyzer 10 flow cytometer. For M1-/M2-MdMs, anti-CD86, anti-CD14, anti-HLA-DR, anti-CD206, anti-CD80, anti-TREM2, and anti-CD163 were used. For CD4^+ T cells, anti-CD69, anti-CD45RO, anti-CD134, anti-CD154, anti-CD3, anti-CD25 were employed. For B cells, anti-CD27, anti-CD19, and anti-CD38 were applied. Zombie Aqua™ Fixable Viability Kit (1:500 dilution, BioLegend, San Diego, CA, USA) (for CD4^+ T cells, macrophages) or Annexin/PE staining (BD Biosciences, Heidelberg, Germany) (for B cells) was used to discriminate living and dead cells according to the manufacturers protocol. For T cell and B cell proliferation assays, freshly isolated T and B cells were stained with CTV and the decrease in CTV as a result of cell proliferation was detected by flow cytometry. CTV positive cells were gated in high proliferating cells (low CTV level), medium proliferating cells (medium CTV level), and nonproliferating cells (high CTV level). Plasmablasts were characterized as CD27^+CD38^+ cells, naïve B as CD19^+CD27^lowCD38^med, and memory B cells as CD19^+CD27^med CD38^low (Supplementary Fig. 1). For M1 MdMs, the cell population was gated using FSC/SSC channel, for M2 MdMs, the CD163^med population was gated since IL4 downregulates CD163 [18] and for CD4^+ T cells, CD3^+CD25^+ cells were gated. Geometric mean of the fluorescent intensity was calculated using FlowJo software V10 (Treestar, Ashland, TN, USA). Fold induction of surface marker expression was calculated using the DMSO-treated cells as control.
(§5) For determination of cytokine concentrations (IL10, IL17, IL8, IL6, IFNγ, CCL2) in the supernatant of humane immune cells, cytometric bead array (BD Biosciences, Heidelberg, Germany) was used. For the detection of IgG, IgA, PGE2, CCL18, and CCL17 an ELISA was performed. The cytometric bead arrays and the ELISAs were performed according to the manufacturers protocol.

CD4+ T cells [6] = assay: CD4+ T cell activation with anti-CD3/anti-CD28 (proliferation, surface markers, cytokines, viability); type: cell-based
Description: CTV staining was performed according to the protocol of supplier.
For analysis of the surface markers, 1.5–2*10^5 cells of each sample were blocked with human FcR Blocking Reagent (15 min, 4 °C). Afterwards, samples were stained with up to 7 µl of a mixture of different surface marker antibodies (15 min, 4 °C) and 250 µl of 10 % FCS/PBS were added. After centrifugation (300 g, 5 min, 4 °C) samples were resuspended in 100 µl PBS and measured with MACSQuant® Analyzer 10 flow cytometer. […] For CD4^+ T cells, anti-CD69, anti-CD45RO, anti-CD134, anti-CD154, anti-CD3, anti-CD25 were employed. […] Zombie Aqua™ Fixable Viability Kit (1:500 dilution, BioLegend, San Diego, CA, USA) (for CD4^+ T cells, macrophages) or Annexin/PE staining (BD Biosciences, Heidelberg, Germany) (for B cells) was used to discriminate living and dead cells according to the manufacturers protocol. For T cell and B cell proliferation assays, freshly isolated T and B cells were stained with CTV and the decrease in CTV as a result of cell proliferation was detected by flow cytometry. CTV positive cells were gated in high proliferating cells (low CTV level), medium proliferating cells (medium CTV level), and nonproliferating cells (high CTV level). […] For M1 MdMs, the cell population was gated using FSC/SSC channel, for M2 MdMs, the CD163^med population was gated since IL4 downregulates CD163 [18] and for CD4^+ T cells, CD3^+CD25^+ cells were gated. Geometric mean of the fluorescent intensity was calculated using FlowJo software V10 (Treestar, Ashland, TN, USA). Fold induction of surface marker expression was calculated using the DMSO-treated cells as control.

[7] = system: primary human immune cells; assay: viability of primary human immune cells, formazan-based Orangu assay (ranges over cell types); conditions: 48 h
Description: as §1

B cells [8] = assay: B cell activation with IL-21, sCD40L, CpG, anti-IgM (proliferation, plasmablasts, IgG/IgA, viability); type: cell-based, human; conditions: for B cell proliferation / formation of plasmablasts / release of IgA / release of IgG: IL-21, sCD40L, CpG, anti-IgM, 5 days, A366 and MS31 concentration-dependent
Description: B cells were activated as described previously. Briefly, 1.25 × 10^5 B cells (stained with 0.25 µM CTV) per well were seeded in a 48 well plate and pretreated with A366, MS31, rapamycin, or vehicle (DMSO) for 30 min and then stimulated with 2.5 μg/ml CpG, 5 μg/ml unconjugated goat antihuman IgM F(ab′)2 fragments, 1 μg/ml sCD40L, and 50 ng/ml recombinant human IL-21 for 5 days.
as §4, §5

monocytes = assay: viability assay (Orangu, formazan-based), monocytes; type: cell-based, human; conditions: 48 h, n = 3, read-out: Monocyte viability IC50
Description: as §1

M1 MdMs [9] = assay: viability assay (Orangu, formazan-based), M1 MdM; type: cell-based, human; conditions: 48 h, n = 3
Description: as §1

M2 MdMs [10] = assay: energy metabolism (Seahorse OCR/ECAR), M2 MdMs; type: cell-based, human; conditions: polarized 24 h in presence of compound
Description: as §2

M2 macrophages = assay: polarization of MdMs to M2 macrophages (surface markers, cytokines, viability); type: cell-based, human
Description: as §3, §4, §5

B cells [11] = assay: energy metabolism (Seahorse OCR/ECAR), activated B cells; type: cell-based, human; conditions: 5 days
Description: as §2

[12] = M1 polarization, 48 h, flow cytometry
[13] = M1 polarization, 48 h, supernatant
[14] = M2 polarization, 24 h, supernatant

SMILES: COc1c(CN)cc(CN)cc1OCCCN1Cc2ccccc2C1 [MS31]
- pIC50 [1]: 7.11
- pIC50 (M2 MdMs [2]): 4.05
- pIC50 (B cells [3]): 4.96
- energy metabolism (OCR, ECAR) of M1 MdMs (M1 MdMs [4]): did not affect
- pIC50 (CD4+ T cells [5]): 4.66
- overall effect on M1 polarization (M1 macrophages): may shift M1 to an M2 phenotype
- cytotoxicity during polarization of M1 macrophages (M1 macrophages; 0–50 µM, 48 h, zombie staining): did not induce cytotoxicity
- CD163 surface marker expression (M1 macrophages; [12]): slightly increased
- TREM2 surface marker expression (M1 macrophages; [12]): slightly increased
- release of IFNγ (M1 macrophages; [13]): upregulated the release of IFNγ more pronouncedly
- release of IL8 (M1 macrophages; [13]): significantly inhibited
- cytotoxic effects on CD4+ T cells (CD4+ T cells [6]; 0–10 µM, 5 days): no cytotoxic effects
- CD134 expression (CD4+ T cells [6]; activated CD4+ T cells, 5 days): increased
- activation of CD4+ T cells (CD25 positive, CD25 and CD69 positive cells, CD69) (CD4+ T cells [6]; anti-CD3/anti-CD28, 5 days): did not influence
- proliferation of CD4+ T cells (CD4+ T cells [6]; anti-CD3/anti-CD28, 5 days, CTV): did not affect
- pIC50 ([7]; range for CD4+ T cells and B cells, read-out: viability IC50 values): 4.66 to 4.96
- pIC50 ([7]; range over all immune cell types tested, read-out: IC50, immune cell type-dependent cytotoxicity): 2.51 to 4.96
- B cell activation (proliferation, plasmablast formation, release of immunoglobulins A and G) (B cells [8]; 2.5 µM): clearly prevented
- B cell proliferation (B cells [8]): markedly reduced
- formation of plasmablasts (B cells [8]): markedly reduced
- release of IgA (B cells [8]): markedly reduced
- release of IgG (B cells [8]): markedly reduced
- pIC50 (monocytes): 4.38
- pIC50 (M1 MdMs [9]): 2.51
- OCR in M2 MdMs (M2 MdMs [10]): only slightly increased
- overall effect on M2 polarization (M2 macrophages): may weaken M2 polarization
- cytotoxicity during polarization of macrophages to M2 MdMs (M2 macrophages; 0–50 µM, zombie staining): did not induce cytotoxicity
- CD86 surface marker expression (M2 macrophages; M2 polarization, 24 h, flow cytometry): reduced
- CCL2 release (M2 macrophages; [14]): reduced
- CCL18 release (M2 macrophages; [14]): increased
- IL10 release (M2 macrophages; [14]): reduced
- PGE2 release (M2 macrophages; [14]): reduced

SMILES: CO[C@H]1C[C@@H]2CC[C@@H](C)[C@@](O)(O2)C(=O)C(=O)N2CCCC[C@H]2C(=O)O[C@H]([C@H](C)C[C@@H]2CC[C@@H](O)[C@H](OC)C2)CC(=O)[C@H](C)/C=C(\C)[C@@H](O)[C@@H](OC)C(=O)[C@H](C)C[C@H](C)/C=C/C=C/C=C/1C [rapamycin]
- energy metabolism of activated B cells (OCR, ECAR) (B cells [11]): induced both glycolysis and oxidative phosphorylation
- B cell proliferation (B cells [8]): inhibit
- formation of plasmablasts (B cells [8]): inhibit
- release of IgA (B cells [8]): inhibit
- release of IgG (B cells [8]): inhibit
